This note sets out measurements from ChEMBL document CHEMBL4190312, “Tau protein aggregation in Alzheimer's disease: An attractive target for the development of novel therapeutic agents” (Eur J Med Chem, 2017).

The target of one assay is T1, Protein O-GlcNAcase (Homo sapiens, UniProt O60502).
T1 sequence (O60502 whole entry): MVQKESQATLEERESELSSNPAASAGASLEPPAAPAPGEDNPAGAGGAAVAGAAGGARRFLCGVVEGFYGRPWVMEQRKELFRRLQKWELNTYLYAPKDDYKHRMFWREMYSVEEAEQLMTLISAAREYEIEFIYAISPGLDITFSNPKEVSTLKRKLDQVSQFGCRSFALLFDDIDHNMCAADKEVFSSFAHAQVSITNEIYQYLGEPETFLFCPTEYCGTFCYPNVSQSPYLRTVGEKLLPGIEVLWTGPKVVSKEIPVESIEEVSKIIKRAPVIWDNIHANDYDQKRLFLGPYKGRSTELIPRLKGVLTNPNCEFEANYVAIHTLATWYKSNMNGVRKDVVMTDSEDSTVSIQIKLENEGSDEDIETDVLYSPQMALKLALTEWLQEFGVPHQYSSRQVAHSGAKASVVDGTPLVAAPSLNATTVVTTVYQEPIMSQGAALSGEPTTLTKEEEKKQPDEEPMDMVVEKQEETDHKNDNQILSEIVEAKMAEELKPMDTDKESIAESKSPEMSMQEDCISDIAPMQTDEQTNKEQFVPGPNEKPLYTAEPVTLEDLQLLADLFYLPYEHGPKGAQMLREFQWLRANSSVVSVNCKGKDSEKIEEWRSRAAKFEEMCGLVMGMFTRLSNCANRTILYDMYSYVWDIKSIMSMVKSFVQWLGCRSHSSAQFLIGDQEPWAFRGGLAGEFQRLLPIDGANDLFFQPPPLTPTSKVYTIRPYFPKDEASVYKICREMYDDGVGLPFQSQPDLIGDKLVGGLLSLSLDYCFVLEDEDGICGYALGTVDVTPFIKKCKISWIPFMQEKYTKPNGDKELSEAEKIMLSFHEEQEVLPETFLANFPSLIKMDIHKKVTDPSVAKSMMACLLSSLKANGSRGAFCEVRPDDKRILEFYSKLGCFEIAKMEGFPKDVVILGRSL
Description: Competitive inhibition of human O-GlcNAcase by Lineweaver-Burk analysis.

For assay [1], the species on record is Homo sapiens. Briefly: Selectivity index, ratio of Ki for human beta-hexosaminidase A to Ki for human O-GlcNAcase.
For assay [2], the species on record is Homo sapiens. Briefly: Selectivity index, ratio of Ki for human beta-hexosaminidase B to Ki for human O-GlcNAcase.

Regarding `C=C/C=C/C(=O)N[C@H]1c2nc(CCc3ccccc3)cn2[C@H](CO)[C@@H](O)[C@@H]1O`, at Protein O-GlcNAcase, affinity was put at a Ki of 4.1 nM. Further, the Ratio Ki in the assay listed under Homo sapiens [1] and in the assay listed under Homo sapiens [2] was 900000 each time.
